# Data reported in the supplement of paper PMC10307832.
# Key:
# Assay in all cases: relative viability (nuclei count vs DMSO), 5 days (fraction); higher = more cells survive
# NCI-H1437 = tested on: NCI-H1437
# Summary of the method: (§1)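 Lung cancer cell lines, seeded in 1536-well plates, were treated the following day by pin tool with a single drug or with five library-drug doses (not always all listed) in √10 steps on top of a fixed anchor-drug dose. Cells were fixed and nuclei stained in one step after 5 days, and nuclei were counted. Relative viability is the nuclei count for treated wells divided by that for vehicle wells, reported as medians of duplicate plates.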
# NCI-H1355 = tested on: NCI-H1355
# Summary of the method: as §1
# NCI-H2085 = tested on: NCI-H2085
# Summary of the method: as §1
# NCI-H838 = tested on: NCI-H838
# Summary of the method: as §1
# NCI-H1395 = tested on: NCI-H1395
# Summary of the method: as §1
# NCI-H2342 = tested on: NCI-H2342
# Summary of the method: as §1
# NCI-H1755 = tested on: NCI-H1755
# Summary of the method: as §1
# NCI-H1650 = tested on: NCI-H1650
# Summary of the method: as §1
# HCC-366 = tested on: HCC-366
# Summary of the method: as §1
# HCC-15 = tested on: HCC-15
# Summary of the method: as §1
# LCLC-103H = tested on: LCLC-103H
# Summary of the method: as §1
# NCI-H1734 = tested on: NCI-H1734
# Summary of the method: as §1
# NCI-H1651 = tested on: NCI-H1651
# Summary of the method: as §1
# NCI-H358 = tested on: NCI-H358
# Summary of the method: as §1
# BEN = tested on: BEN
# Summary of the method: as §1
# NCI-H441 = tested on: NCI-H441
# Summary of the method: as §1
# NCI-H2023 = tested on: NCI-H2023
# Summary of the method: as §1
# HCC-44 = tested on: HCC-44
# Summary of the method: as §1
# CAL-12T = tested on: CAL-12T
# Summary of the method: as §1
# EKVX = tested on: EKVX
# Summary of the method: as §1
# NCI-H1975 = tested on: NCI-H1975
# Summary of the method: as §1
# LOU-NH91 = tested on: LOU-NH91
# Summary of the method: as §1
# NCI-H460 = tested on: NCI-H460
# Summary of the method: as §1
smiles,measurement,setting,value
Clc1ccc(Nc2nnc(Cc3ccncc3)c3ccccc23)cc1 [Vatalanib] + CC(=O)c1c(C)c2cnc(Nc3ccc(N4CCNCC4)cn3)nc2n(C2CCCC2)c1=O [Palbociclib] (partner 0.5 µM),relative viability,NCI-H1437; first compound 0.04 µM,0.309
same,relative viability,NCI-H1437; first compound 0.1265 µM,0.318
same,relative viability,NCI-H1437; first compound 0.4 µM,0.356
same,relative viability,NCI-H1437; first compound 1.265 µM,0.294
same,relative viability,NCI-H1437; first compound 4 µM,0.279
same,relative viability,NCI-H1355; first compound 0.04 µM,0.434
same,relative viability,NCI-H1355; first compound 0.1265 µM,0.428
same,relative viability,NCI-H1355; first compound 0.4 µM,0.424
same,relative viability,NCI-H1355; first compound 1.265 µM,0.35
same,relative viability,NCI-H1355; first compound 4 µM,0.388
same,relative viability,NCI-H2085; first compound 0.04 µM,0.457
same,relative viability,NCI-H2085; first compound 0.1265 µM,0.469
same,relative viability,NCI-H2085; first compound 0.4 µM,0.492
same,relative viability,NCI-H2085; first compound 1.265 µM,0.433
same,relative viability,NCI-H2085; first compound 4 µM,0.475
same,relative viability,NCI-H838; first compound 0.04 µM,0.227
same,relative viability,NCI-H838; first compound 0.1265 µM,0.235
same,relative viability,NCI-H838; first compound 0.4 µM,0.218
same,relative viability,NCI-H838; first compound 1.265 µM,0.203
same,relative viability,NCI-H838; first compound 4 µM,0.215
same,relative viability,NCI-H1395; first compound 0.04 µM,0.654
same,relative viability,NCI-H1395; first compound 0.1265 µM,0.622
same,relative viability,NCI-H1395; first compound 0.4 µM,0.631
same,relative viability,NCI-H1395; first compound 4 µM,0.568
same,relative viability,NCI-H2342; first compound 0.04 µM,0.489
same,relative viability,NCI-H2342; first compound 0.1265 µM,0.507
same,relative viability,NCI-H2342; first compound 0.4 µM,0.46
same,relative viability,NCI-H2342; first compound 1.265 µM,0.579
same,relative viability,NCI-H2342; first compound 4 µM,0.593
same,relative viability,NCI-H1755; first compound 0.04 µM,0.473
same,relative viability,NCI-H1755; first compound 0.1265 µM,0.474
same,relative viability,NCI-H1755; first compound 0.4 µM,0.457
same,relative viability,NCI-H1755; first compound 1.265 µM,0.445
same,relative viability,NCI-H1755; first compound 4 µM,0.425
same,relative viability,NCI-H1650; first compound 0.04 µM,0.364
same,relative viability,NCI-H1650; first compound 0.1265 µM,0.384
same,relative viability,NCI-H1650; first compound 0.4 µM,0.299
same,relative viability,NCI-H1650; first compound 1.265 µM,0.33
same,relative viability,NCI-H1650; first compound 4 µM,0.312
same,relative viability,HCC-366; first compound 0.04 µM,0.462
same,relative viability,HCC-366; first compound 0.1265 µM,0.348
same,relative viability,HCC-366; first compound 0.4 µM,0.457
same,relative viability,HCC-366; first compound 1.265 µM,0.391
same,relative viability,HCC-366; first compound 4 µM,0.355
same,relative viability,HCC-15; first compound 0.04 µM,0.711
same,relative viability,HCC-15; first compound 0.1265 µM,0.676
same,relative viability,HCC-15; first compound 0.4 µM,0.759
same,relative viability,HCC-15; first compound 1.265 µM,0.691
same,relative viability,HCC-15; first compound 4 µM,0.668
same,relative viability,LCLC-103H; first compound 0.04 µM,0.506
same,relative viability,LCLC-103H; first compound 0.1265 µM,0.452
same,relative viability,LCLC-103H; first compound 0.4 µM,0.503
same,relative viability,LCLC-103H; first compound 1.265 µM,0.443
same,relative viability,LCLC-103H; first compound 4 µM,0.513
same,relative viability,NCI-H1734; first compound 0.04 µM,0.338
same,relative viability,NCI-H1734; first compound 0.1265 µM,0.314
same,relative viability,NCI-H1734; first compound 0.4 µM,0.396
same,relative viability,NCI-H1734; first compound 1.265 µM,0.33
same,relative viability,NCI-H1734; first compound 4 µM,0.336
same,relative viability,NCI-H1651; first compound 0.04 µM,0.51
same,relative viability,NCI-H1651; first compound 0.1265 µM,0.496
same,relative viability,NCI-H1651; first compound 0.4 µM,0.479
same,relative viability,NCI-H1651; first compound 1.265 µM,0.532
same,relative viability,NCI-H1651; first compound 4 µM,0.513
same,relative viability,NCI-H358; first compound 0.04 µM,0.139
same,relative viability,NCI-H358; first compound 0.1265 µM,0.131
same,relative viability,NCI-H358; first compound 0.4 µM,0.149
same,relative viability,NCI-H358; first compound 1.265 µM,0.123
same,relative viability,NCI-H358; first compound 4 µM,0.136
same,relative viability,BEN; first compound 0.04 µM,0.474
same,relative viability,BEN; first compound 0.1265 µM,0.456
same,relative viability,BEN; first compound 0.4 µM,0.948
same,relative viability,BEN; first compound 1.265 µM,0.489
same,relative viability,BEN; first compound 4 µM,0.489
same,relative viability,NCI-H441; first compound 0.04 µM,0.223
same,relative viability,NCI-H441; first compound 0.1265 µM,0.194
same,relative viability,NCI-H441; first compound 0.4 µM,0.253
same,relative viability,NCI-H441; first compound 1.265 µM,0.194
same,relative viability,NCI-H441; first compound 4 µM,0.223
same,relative viability,NCI-H2023; first compound 0.04 µM,0.375
same,relative viability,NCI-H2023; first compound 0.1265 µM,0.344
same,relative viability,NCI-H2023; first compound 0.4 µM,0.439
same,relative viability,NCI-H2023; first compound 1.265 µM,0.393
same,relative viability,NCI-H2023; first compound 4 µM,0.366
same,relative viability,HCC-44; first compound 0.04 µM,0.922
same,relative viability,HCC-44; first compound 0.1265 µM,0.981
same,relative viability,HCC-44; first compound 0.4 µM,0.913
same,relative viability,HCC-44; first compound 1.265 µM,0.955
same,relative viability,HCC-44; first compound 4 µM,0.959
same,relative viability,CAL-12T; first compound 0.04 µM,0.409
same,relative viability,CAL-12T; first compound 0.1265 µM,0.312
same,relative viability,CAL-12T; first compound 0.4 µM,0.384
same,relative viability,CAL-12T; first compound 1.265 µM,0.345
same,relative viability,CAL-12T; first compound 4 µM,0.425
same,relative viability,EKVX; first compound 0.04 µM,0.366
same,relative viability,EKVX; first compound 0.1265 µM,0.369
same,relative viability,EKVX; first compound 0.4 µM,0.343
same,relative viability,EKVX; first compound 1.265 µM,0.375
same,relative viability,EKVX; first compound 4 µM,0.334
same,relative viability,NCI-H1975; first compound 0.04 µM,0.651
same,relative viability,NCI-H1975; first compound 0.1265 µM,0.5
same,relative viability,NCI-H1975; first compound 0.4 µM,0.768
same,relative viability,NCI-H1975; first compound 1.265 µM,0.528
same,relative viability,NCI-H1975; first compound 4 µM,0.489
same,relative viability,LOU-NH91; first compound 0.04 µM,0.549
same,relative viability,LOU-NH91; first compound 0.1265 µM,0.483
same,relative viability,LOU-NH91; first compound 0.4 µM,0.542
same,relative viability,LOU-NH91; first compound 1.265 µM,0.457
same,relative viability,LOU-NH91; first compound 4 µM,0.55
same,relative viability,NCI-H460; first compound 0.04 µM,0.152
same,relative viability,NCI-H460; first compound 0.1265 µM,0.169
same,relative viability,NCI-H460; first compound 0.4 µM,0.211
same,relative viability,NCI-H460; first compound 1.265 µM,0.148
same,relative viability,NCI-H460; first compound 4 µM,0.0922
